Format in all cases: biochemical
Test [1] addresses T1, MMP-7FL (full-length matrilysin) (Homo sapiens, UniProt P09237).
T1 sequence (P09237 95-267): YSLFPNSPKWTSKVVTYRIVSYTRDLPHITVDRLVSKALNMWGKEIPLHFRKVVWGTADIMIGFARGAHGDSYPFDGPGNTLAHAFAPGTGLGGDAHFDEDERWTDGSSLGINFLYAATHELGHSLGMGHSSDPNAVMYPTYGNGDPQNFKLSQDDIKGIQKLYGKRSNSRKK
Briefly: Thiopeptolide hydrolysis inhibition assay, MMP-7FL. To be noted: thiopeptolide substrate, HEPES pH 7.0, 22° C. The text has this:
(§1) The assays measure the amount by which a test compound reduces the hydrolysis of a thiopeptolide substrate catalyzed by a matrix metalloproteinase enzyme. Such assays are described in detail by Ye et al., Biochemistry, 1992;31(45):11231-11235, hereby incorporated herein by reference.
(§2) Thiopeptolide substrates show virtually no decomposition or hydrolysis at or below neutral pH in the absence of a matrix metalloproteinase enzyme. A typical thiopeptolide substrate commonly utilized for assays is Ac-Pro-Leu-Gly-thioester-Leu-Leu-Gly-OEt. A 100 μL assay mixture will contain 50 mM of N-2-hydroxyethylpiperazine-N′-2-ethanesulfonic acid buffer (“HEPES”) at pH 7.0, 10 mM CaCl2, 100 μM thiopeptolide substrate, and 1 mM 5,5′-dithio-bis-(2-nitrobenzoic acid) (DTNB). The thiopeptolide substrate concentration may be varied from, for example, 10 to 800 μM, in order to obtain Km and Kcat values. The change in absorbance at 405 nm is monitored on a Thermo Max microplate reader (Molecular Devices, Menlo Park, Calif.) at room temperature (22° C.). The calculation of the amount of hydrolysis of the thiopeptolide substrate is based on E412=13600 M^−1 cm^−1 for the DTNB-derived product 3-carboxy-4-nitrothiophenoxide. Assays are carried out with and without matrix metalloproteinase inhibitor compounds, and the amount of hydrolysis is compared for a determination of inhibitory activity of the test compounds.
(§3) Several representative compounds have been evaluated for their ability to inhibit various matrix metalloproteinase enzymes. In Table 1, MMP-1FL refers to full-length interstitial collagenase; MMP-2FL refers to full-length Gelatinase A; MMP-3CD refers to the catalytic domain of stromelysin-1; MMP-7FL refers to full-length matrilysin; MMP-9FL refers to full-length Gelatinase B; MMP-13CD refers to the catalytic domain of collagenase 3; and MMP-14CD refers to the catalytic domain of MMP-14. Test compounds were evaluated at various concentrations, in order to determine their respective IC50 values, the micromolar concentration of compound required to cause a 50% inhibition of the catalytic activity of the respective enzyme.

Test [2] addresses MMP-3CD (catalytic domain of stromelysin-1) (Homo sapiens, UniProt P08254). Briefly: Thiopeptolide hydrolysis inhibition assay, MMP-3CD. To be noted: thiopeptolide substrate, MES buffer pH 6.0.
Source text: as §1, §2
It should be appreciated that the assay buffer used with MMP-3CD is 50 mM of N-morpholinoethanesulfonate (“MES”) at pH 6.0 rather than the HEPES buffer at pH 7.0 described above.
as §3

Test [3] deals with T2, MMP-1FL (full-length interstitial collagenase) (Homo sapiens, UniProt P03956).
T2 sequence (P03956 100-469): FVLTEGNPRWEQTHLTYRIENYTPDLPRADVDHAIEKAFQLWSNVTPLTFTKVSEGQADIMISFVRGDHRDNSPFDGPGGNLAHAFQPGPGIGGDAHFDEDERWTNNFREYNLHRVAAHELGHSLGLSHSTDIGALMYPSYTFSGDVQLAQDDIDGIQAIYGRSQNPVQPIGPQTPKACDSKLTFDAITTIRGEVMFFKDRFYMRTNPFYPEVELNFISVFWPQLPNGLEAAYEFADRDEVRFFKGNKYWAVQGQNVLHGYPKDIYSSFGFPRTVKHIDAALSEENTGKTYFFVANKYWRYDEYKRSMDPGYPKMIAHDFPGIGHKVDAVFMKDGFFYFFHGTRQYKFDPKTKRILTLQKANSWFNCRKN
Briefly: Thiopeptolide hydrolysis inhibition assay, MMP-1FL. Conditions: thiopeptolide substrate, HEPES pH 7.0, 22° C.
Source text: as §1, §2, §3

The target in test [4] is MMP-14CD (catalytic domain of MMP-14) (Homo sapiens, UniProt P50281). As to the kind of experiment: Thiopeptolide hydrolysis inhibition assay, MMP-14CD. To be noted: thiopeptolide substrate, HEPES pH 7.0, 22° C.
Source text: as §1, §2, §3

The target in test [5] is MMP-13CD (catalytic domain of collagenase 3) (Homo sapiens, UniProt P45452). Briefly: Thiopeptolide hydrolysis inhibition assay, MMP-13CD. To be noted: thiopeptolide substrate, HEPES pH 7.0, 22° C.
Source text: as §1, §2, §3

The target in test [6] is T3, MMP-2FL (full-length Gelatinase A) (Homo sapiens, UniProt P08253).
T3 sequence (P08253 110-660): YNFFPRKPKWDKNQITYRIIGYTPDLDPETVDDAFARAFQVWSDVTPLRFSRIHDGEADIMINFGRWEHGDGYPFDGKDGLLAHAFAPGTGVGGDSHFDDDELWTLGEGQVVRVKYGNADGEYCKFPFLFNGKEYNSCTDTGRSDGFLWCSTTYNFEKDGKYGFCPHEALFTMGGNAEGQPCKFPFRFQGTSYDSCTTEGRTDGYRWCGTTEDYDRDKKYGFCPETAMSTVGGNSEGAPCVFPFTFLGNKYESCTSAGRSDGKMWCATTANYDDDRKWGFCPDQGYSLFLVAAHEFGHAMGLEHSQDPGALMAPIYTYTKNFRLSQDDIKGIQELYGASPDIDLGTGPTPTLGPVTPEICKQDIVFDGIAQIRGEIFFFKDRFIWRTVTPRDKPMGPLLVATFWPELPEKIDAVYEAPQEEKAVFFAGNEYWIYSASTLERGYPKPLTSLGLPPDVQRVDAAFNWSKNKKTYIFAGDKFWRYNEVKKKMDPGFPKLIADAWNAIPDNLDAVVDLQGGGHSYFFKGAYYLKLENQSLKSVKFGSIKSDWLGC
Briefly: Thiopeptolide hydrolysis inhibition assay, MMP-2FL. Conditions: thiopeptolide substrate, HEPES pH 7.0, 22° C.
Source text: as §1, §2, §3

Test [7] has as its target MMP-9FL (full-length Gelatinase B) (Homo sapiens, UniProt P14780). As to the kind of experiment: Thiopeptolide hydrolysis inhibition assay, MMP-9FL. Conditions: thiopeptolide substrate, HEPES pH 7.0, 22° C.
Source text: as §1, §2, §3

The text below walks through data of US6559142B2, “Sulfonamide matrix metalloproteinase inhibitors” (Warner-Lambert Company, priority 2001, dated 2003).

Sequence of MMP-3CD (catalytic domain of stromelysin-1) (P08254 100-272 limits assumed): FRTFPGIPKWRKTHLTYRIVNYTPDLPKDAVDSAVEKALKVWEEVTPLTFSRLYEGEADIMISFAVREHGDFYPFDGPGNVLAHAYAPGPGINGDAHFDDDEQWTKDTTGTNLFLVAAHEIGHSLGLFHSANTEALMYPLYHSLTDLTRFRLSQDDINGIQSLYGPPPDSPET
Sequence of MMP-9FL (full-length Gelatinase B) (P14780 94-707, species assumed): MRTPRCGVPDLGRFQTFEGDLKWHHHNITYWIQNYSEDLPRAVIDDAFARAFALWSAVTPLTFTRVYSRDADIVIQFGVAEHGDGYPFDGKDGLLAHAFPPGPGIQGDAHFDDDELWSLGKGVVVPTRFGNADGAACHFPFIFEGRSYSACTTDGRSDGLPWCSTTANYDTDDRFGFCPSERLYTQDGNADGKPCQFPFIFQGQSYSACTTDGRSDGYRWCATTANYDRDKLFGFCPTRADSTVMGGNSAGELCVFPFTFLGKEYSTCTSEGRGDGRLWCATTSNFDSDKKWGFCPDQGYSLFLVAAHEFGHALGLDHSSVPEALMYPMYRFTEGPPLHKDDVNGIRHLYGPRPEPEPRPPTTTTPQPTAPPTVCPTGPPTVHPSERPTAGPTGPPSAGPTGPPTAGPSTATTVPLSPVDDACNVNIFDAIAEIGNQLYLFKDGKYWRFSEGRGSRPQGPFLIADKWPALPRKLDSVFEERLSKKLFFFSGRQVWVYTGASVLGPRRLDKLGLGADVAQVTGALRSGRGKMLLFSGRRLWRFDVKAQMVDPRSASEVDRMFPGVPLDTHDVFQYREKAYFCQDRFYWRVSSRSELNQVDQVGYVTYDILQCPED

Broadly, the IC50 is the concentration needed to halve the response being measured. Lower therefore signals inhibition by little substance. `CC1(C)SCCN(S(=O)(=O)c2ccc3oc4cc([N+](=O)[O-])ccc4c3c2)[C@H]1C(=O)O` [Example 13, (S)-2,2-Dimethyl-4-(7-nitro-dibenzofuran-2-sulfonyl)-thiomorpholine-3-carboxylic Acid]: the IC50 in test [1] was found to be 1600 nM; in test [2], 1000 nM; in test [3] it was 60000 nM; in test [4], 15000 nM; in test [5] it was 2700 nM; in test [6], 33000 nM. In test [7], this molecule had a concentration for half-maximal inhibition (IC50) of 100000 nM.
With `CC1(C)SCCN(S(=O)(=O)c2ccc3oc4cc([N+](=O)[O-])ccc4c3c2)[C@H]1C(=O)NO` [Example 14, (S)-2,2-Dimethyl-4-(7-nitro-dibenzofuran-2-sulfonyl)-thiomorpholine-3-carboxylic Acid Hydroxyamide], the IC50 worked out at 38 nM in test [1]; 5 nM in test [2]; 12 nM in test [3]; 24 nM in test [4]; 2 nM in test [5]; 22 nM in test [6]. This molecule registered an IC50 in test [7] of 190 nM.
With `CC1(C)[C@H](C(=O)NO)N(S(=O)(=O)c2ccc3oc4ccccc4c3c2)CCS1(=O)=O` [Example 15, (S)-4-(Dibenzofuran-2-sulfonyl)-2,2-dimethyl-1,1-dioxo-thiomorpholine-3-carboxylic Acid Hydroxyamide], the IC50 in test [1] was determined as 32 nM; in test [2] it was 8 nM; in test [3], 33 nM; in test [4], 98 nM; in test [5] it was 13 nM; in test [6], 250 nM. Besides, in test [7], 1800 nM corresponded to half-maximal inhibition (IC50).
